Experimental data: patent US20260315454A1, “Use of quinoline-4-carboxylic acid in the preparation of anti-aging product as well as product for protecting liver and promoting liver regeneration” (Guangzhou Riju Trade Development Co., Ltd., priority 2023, published 2026)

Assays:
[1] = system: High-generation MSCs (Old MSCs); test: CCK8 assay, proliferation of high-generation mesenchymal stem cells; type: cell-based; conditions: P10-15 MSCs; 50 μM, 100 μM, and 200 μM QCA in the medium
Experimental: (§1) 4. High-generation MSCs (Old MSCs) at P10-15 were plated in a 96 plate, and 50 μM, 100 μM, and 200 μM of QCA were added to the medium, respectively. The medium without adding QCA was used as a control. Low-generation MSCs (Young MSCs) at P4-7, high-generation MSCs (Old MSCs) at P10-15, as well as high-generation MSCs respectively treated with 50 μM and 200 μM QCA for 72 h, were subjected to Ki67 immunofluorescence staining, and the results were shown in FIG. 4B.

[2] = system: High-generation MSCs (Old MSCs); test: Ki67 immunofluorescence staining of high-generation mesenchymal stem cells; type: cell-based; conditions: P10-15 MSCs; 50 μM and 200 μM QCA for 72 h
Experimental: as §1

[3] = system: High-generation MSCs (Old MSCs); test: TUNEL staining of high-generation mesenchymal stem cells; type: cell-based; conditions: P10-15 MSCs; 50 μM and 200 μM QCA for 72 h
Experimental: (§2) 5. Low-generation MSCs (Young MSCs) at P4-7, high-generation MSCs (Old MSCs) at P10-15, as well as old MSCs respectively treated with 50 μM and 200 μM QCA for 72 h were subjected to TUNEL staining, and the results were shown in FIG. 5A. Old MSCs with 50 μM QCA were added to the medium all the time (a fresh medium containing QCA was changed every 2-3 days), and the medium without adding QCA was used as a control. The cells were passaged for 3 consecutive generations (passaged when the cells were 80-90% confluent) before being used for β-Gal staining tests, and the results were shown in FIG. 5B.

[4] = system: High-generation MSCs (Old MSCs); test: β-Gal staining of high-generation mesenchymal stem cells; type: cell-based; conditions: 50 μM QCA all the time, passaged for 3 consecutive generations
Experimental: as §2

W1118 fruit flies = test: lifespan test for fruit flies (survival curves); type: in vivo; conditions: male W1118; 115 μL of QCA (100 mM, 2 mg QCA/tube) in medium; days 20-30 and 40-50
Experimental: (6) The regular medium for rearing fruit flies was added with a preservative and dispensed. After which, 115 μL of QCA (100 mM, equivalent to 2 mg QCA/tube) was added dropwise to the medium, and the same volume of 95% ethanol was added to the control tube. On days 20-30 and 40-50 of fruit flies rearing, the tubes were replaced with QCA-containing rearing tubes for rearing. 3 male W1118 fruit flies and 3 virgin W1118 fruit flies were added to each rearing tube and bred for 3-5 days for a total of 20 tubes. The parental fruit flies were cleared after about 5-6 days, and then adult occurred in about 10 days. A round of picking male fruit flies within 1 day after emergence was performed at a fixed time point each day for a total of 400 fruit flies, in which 20 fruit flies were placed in each tube labeled with the name, date, and number for a total of 20 tubes. Fruit flies were reared at 25° C., 50% humidity and 12 h light/12 h dark, the number of dead fruit flies in the tubes was counted and recorded every day, and the rearing tubes were changed every 3-4 days. The lifespan test for fruit flies in each group needed to be repeated three times independently and the recordings were entered into statistical software for analysis.

fruit flies = test: tube-climbing test of fruit flies; type: in vivo; conditions: 20 male fruit flies; 17.5 cm marker; performance at 120 s
[5] = system: 21 month-old C57BL6/J mice; test: observation of coat status and dermatitis in old mice; type: in vivo; conditions: 5 mg/kg QCA by consecutive gavage for 4 months
Experimental: (§3) (7) 21 month-old C57BL6/J mice were randomly divided into control and QCA groups. 0.9% saline was given to the control group (n=7 for male mice, and n=12 for female mice); and 5 mg/kg QCA was given to the QCA group (n=9 for male mice, and n=13 for female mice) by consecutive gavage for 4 months. […] The test mice were placed on the grip strength meter and the tail of the mice was gently pulled, so that the mice grasped the probe forcefully with the forelimbs and hindlimbs. The readings on the grip strength meter were recorded when the mice exerted the maximum force, the arm strength value in mice were obtained by averaging 3 repetitions of the measurements, and the results were shown in FIG. 7B. Blood was taken from the tail vein of mice 4 months after administration by gavage, the proportion of neutrophils (NEU) was measured by routine blood test, and the results were shown in FIG. 7C. […] The mice were examined periodically for the presence of spontaneous tumors, and the number of mice with spontaneous tumors in each group was recorded. […] Concentrations of alanine aminotransferase (ALT), aspartate aminotransferase (AST), and lactate dehydrogenase (LDH) in plasma were measured using a HITACHI 7600 Series (Japan) biochemical detector, and the results were shown in FIG. 7F. […]

[6] = system: 21 month-old C57BL6/J mice; test: grip strength meter, arm strength of old mice; type: in vivo; conditions: 5 mg/kg QCA by consecutive gavage for 4 months
Experimental: as §3

[7] = system: 21 month-old C57BL6/J mice; test: chronic inflammation in old mice (proportion of neutrophils by routine blood test, serum TNF-α by ELISA); type: in vivo; conditions: 5 mg/kg QCA by consecutive gavage for 4 months
Experimental: as §3

[8] = system: 21 month-old C57BL6/J mice; test: plasma ALT, AST and LDH in old mice; type: in vivo; conditions: aged mice, 5 mg/kg QCA by consecutive gavage for 4 months
Experimental: as §3

[9] = system: 21 month-old C57BL6/J mice; test: survival curves of old mice; type: in vivo; conditions: 5 mg/kg QCA by gavage; Ctrl (n=19) and QCA (n=26)
Experimental: (7) 21 month-old C57BL6/J mice were randomly divided into control and QCA groups. […] The test mice were placed on the grip strength meter and the tail of the mice was gently pulled, so that the mice grasped the probe forcefully with the forelimbs and hindlimbs. The readings on the grip strength meter were recorded when the mice exerted the maximum force, the arm strength value in mice were obtained by averaging 3 repetitions of the measurements, and the results were shown in FIG. 7B. Blood was taken from the tail vein of mice 4 months after administration by gavage, the proportion of neutrophils (NEU) was measured by routine blood test, and the results were shown in FIG. 7C. […] The mice were examined periodically for the presence of spontaneous tumors, and the number of mice with spontaneous tumors in each group was recorded. […] Concentrations of alanine aminotransferase (ALT), aspartate aminotransferase (AST), and lactate dehydrogenase (LDH) in plasma were measured using a HITACHI 7600 Series (Japan) biochemical detector, and the results were shown in FIG. 7F. Survival times were recorded to make the survival curves of the mice in the Ctrl (n=19) and QCA (n=26) groups, and the results were shown in FIG. 7G.

[10] = system: C57BL6/J mice older than 18 months; test: ⅔ partial hepatectomy model in old mice, liver to body weight ratio; type: in vivo; conditions: 5 mg/kg QCA intraperitoneally
Experimental: (§4) (8) Establishment of ⅔ partial hepatectomy model in old mice (⅔PHx): C57BL6/J mice older than 18 months were anesthetized with 2% isoflurane by inhalation and underwent a median abdominal incision. The left external and median lobes of the liver were resected separately with 4-0 silk sutures, and the associated vessels and bile ducts were ligated. Mice were injected intraperitoneally with 5 mg/kg QCA or an equal volume of DMSO 2 h before ⅔PHx surgery, and 24 h, 48 h and 72 h after ⅔PHx surgery, respectively. Mice were sacrificed at 6 h, 48 h and 168 h after surgery, respectively, and liver specimens and plasma were collected. The postoperative survival time of mice was recorded and used to plot survival curves. Mice were weighed in advance and livers were weighed after liver extraction so that the liver to body weight ratio could be calculated. Concentrations of alanine aminotransferase (ALT), aspartate aminotransferase (AST), and lactate dehydrogenase (LDH) in plasma were measured using a HITACHI 7600 Series (Japan) biochemical detector. Mouse liver samples collected at specific time points were fixed in 4% paraformaldehyde overnight and then embedded in paraffin. A 3 μm-thick paraffin section was made for subsequent Ki67 immunohistochemical staining, and the specific procedure was as follows: after subjecting to antigen repairing in EDTA (pH 8.0), the sections were incubated with a primary antibody overnight at 4° C., and then incubated with a secondary antibody at 37° C. for 1 h. Sections were stained with diaminobenzidine and hematoxylin, and then visualized and imaged with an optical microscope.

[11] = system: C57BL6/J mice older than 18 months; test: ⅔ partial hepatectomy model in old mice, plasma ALT, AST and LDH; type: in vivo; conditions: 5 mg/kg QCA intraperitoneally 2 h before and 24 h, 48 h and 72 h after ⅔PHx
Experimental: as §4, with “A 3 μm-thick paraffin section was made for subsequent Ki67 immunohistochemical staining, and the specific procedure was as follows: after subjecting to antigen repairing in EDTA (pH 8.0), the sections were incubated with a primary antibody overnight at 4° C., and then incubated with a secondary antibody at 37° C. for 1 h. Sections were stained with diaminobenzidine and hematoxylin, and then visualized and imaged with an optical microscope.” left out

[12] = system: C57BL6/J mice older than 18 months; test: ⅔ partial hepatectomy model in old mice, survival; type: in vivo; conditions: 5 mg/kg QCA intraperitoneally 2 h before and 24 h, 48 h and 72 h after ⅔PHx
Experimental: as §4, with “A 3 μm-thick paraffin section was made for subsequent Ki67 immunohistochemical staining, and the specific procedure was as follows: after subjecting to antigen repairing in EDTA (pH 8.0), the sections were incubated with a primary antibody overnight at 4° C., and then incubated with a secondary antibody at 37° C. for 1 h. Sections were stained with diaminobenzidine and hematoxylin, and then visualized and imaged with an optical microscope.” left out

[13] = system: C57BL6/J mice older than 18 months; test: ⅔ partial hepatectomy model in old mice, Ki67 immunohistochemical staining of liver; type: in vivo; conditions: 5 mg/kg QCA intraperitoneally 2 h before and 24 h, 48 h and 72 h after ⅔PHx
Experimental: as §4, with “A 3 μm-thick paraffin section was made for subsequent Ki67 immunohistochemical staining, and the specific procedure was as follows: after subjecting to antigen repairing in EDTA (pH 8.0), the sections were incubated with a primary antibody overnight at 4° C., and then incubated with a secondary antibody at 37° C. for 1 h. Sections were stained with diaminobenzidine and hematoxylin, and then visualized and imaged with an optical microscope.” left out

O=C(O)c1ccnc2ccccc12 [quinoline-4-carboxylic acid]
cell proliferation (CCK8 assay) [1]: can promote cell proliferation
cell proliferation (Ki67 immunofluorescence staining) [2]: can promote cell proliferation
nuclear DNA breakage (TUNEL staining) [3]: reduces nuclear DNA breakage
cell aging (β-Gal staining) [4]: retards cell aging
lifespan of fruit flies (survival curves) (W1118 fruit flies): prolongs the lifespan of fruit flies
exercise capacity (tube-climbing test) (fruit flies): enhances their exercise capacity
symptoms such as poor coat and dermatitis [5]: can reduce the symptoms such as poor coat and dermatitis in old mice
arm strength (reflecting the muscle strength) [6]: enhance the arm strength
chronic inflammation (neutrophils, TNF-α) [7]: down-regulate the chronic inflammation
enzymatic indexes of liver injury (ALT, AST, LDH) [8]: down-regulate the chronic inflammation and enzymatic indexes of liver injury in aged mice
lifespan of the mice (survival curves) [9]: prolong the lifespan of the mice
regenerative liver to body weight ratio at 6 h ([10]; 6 h after hepatectomy): does not significantly increase
regenerative liver to body weight ratio at 48 h ([10]; 48 h after hepatectomy): significantly increases
regenerative liver to body weight ratio at 168 h ([10]; 168 h after hepatectomy): does not significantly increase
enzymatic indexes of liver injury (ALT, AST, LDH) after hepatectomy [11]: attenuates the enzymatic indexes of liver injury
survival rate of mice after hepatectomy [12]: improves the survival rate of mice after hepatectomy
Ki67-positive cells of liver tissue (immunohistochemical staining) [13]: more Ki67-positive cells of liver tissue in the QCA group
